According to ChEMBL document CHEMBL6096696, “Structure-Activity Relationship Studies of an Autophagy Inhibitor That Targets the ATG14L-Beclin1 Protein-Protein Interaction Reveal Modifications That Improve Potency and Solubility and Maintain Selectivity” (J Med Chem, 2025):
In brackets after ≈: the same amount, converted by molar mass.

What was measured:
[1] = Kinetic aqueous solubility of compound in PBS at pH 7.4 by absorbance based analysis; assay type: physicochemical; conditions: read-out: Kinetic_solubility
HEK293T [2] = test: Inhibition of C-terminal Nano-luc tagged ATG14L/C-terminal Halo-tagged Beclin 1 (unknown origin) PPI tranfected with HEK293T cells using […] at 100 uM incubated for 24 hrs by […] assay relative to control; assay type: cell-based; conditions: Homo sapiens, values are per cent of control
[3] = Selectivity ratio of inhibition of C-terminal Nano-luc tagged UVRAG/C-terminal Halo-tagged Beclin 1 (unknown origin) PPI tranfected with HEK293T cells to inhibition of C-terminal Nano-luc tagged ATG14L/C-terminal Halo-tagged Beclin 1 (unknown origin) PPI tranfected with HEK293T cells
HEK293T [4] = test: Inhibition of C-terminal Nano-luc tagged UVRAG/C-terminal Halo-tagged Beclin 1 (unknown origin) PPI tranfected with HEK293T cells using […] at 100 uM incubated for 24 hrs by […] assay relative to control; assay type: cell-based; conditions: Homo sapiens, values are per cent of control

SMILES | solubility kinetic [1] [µM] | residual binding, % of control (HEK293T [2]) [%] | Selectivity ratio [3] | residual binding, % of control (HEK293T [4]) [%]
CCCN1C(=O)COc2ccc(NS(=O)(=O)c3cccc(C(F)(F)F)c3)cc21 | > 100 | 80 |  | 
CCCN1C(=O)COc2ccc(S(=O)(=O)Nc3c(C)cccc3C)cc21 | > 100 | 105 |  | 
O=C1COc2ccc(-c3ccc(F)cc3F)cc2N1Cc1noc(C2CCC2)n1 | > 100 | 87.9 | 1.14 | 100
COc1ccccc1-c1ccc2c(c1)N(Cc1noc(C3CCC3)n1)C(=O)CO2 | > 100 | 98.3 | 1.06 | 104
Cc1cccc(NS(=O)(=O)c2ccc3c(c2)OCC(=O)N3Cc2ccccc2)c1C | 50 (≈ 21.1 µg/mL) | 105 |  | 
CC(C)c1cccc(-c2ccc3c(c2)N(Cc2noc(C4CCC4)n2)C(=O)CO3)c1 | > 100 | 81.6 | 1.21 | 99.1
CCCN1C(=O)COc2ccc(NS(=O)(=O)c3cccc(C)c3)cc21 | > 100 | 96.2 |  | 
Cc1cccc(NS(=O)(=O)c2ccc3c(c2)OCC(=O)N3Cc2ccco2)c1C | > 100 | 109 |  | 
Cc1c(Cl)cccc1Nc1ccc2c(c1)N(Cc1noc(C3CCC3)n1)C(=O)CO2 | 100 (≈ 42.5 µg/mL) | 83.9 | 1.4 | 118
CCCN1C(=O)COc2ccc(Nc3cccc(Cl)c3C)cc21 | 50 (≈ 16.5 µg/mL) | 101 | 1.02 | 104
CCCN1C(=O)COc2ccc(Nc3ccccc3Br)cc21 | > 100 | 82.9 | 1.49 | 108
O=C1COc2ccc(-c3cccc(OC(F)(F)F)c3)cc2N1Cc1noc(C2CCC2)n1 | > 100 | 105 | 1.05 | 110
CCCN1C(=O)COc2ccc(NS(=O)(=O)c3cc(OC)ccc3OC)cc21 | > 100 | 103 |  | 
Cc1cccc(NS(=O)(=O)c2ccc3c(c2)N(CC(C)O)C(=O)CO3)c1C (stereo not given) | > 100 | 107 |  | 
CCCN1C(=O)COc2ccc(S(=O)(=O)Nc3ccccc3Br)cc21 | > 100 | 132 |  | 
Cc1cccc(NS(=O)(=O)c2ccc3c(c2)N(CC2CCCCC2)C(=O)CO3)c1C | > 100 | 106 |  | 
Cc1cccc(Nc2ccc3c(c2)N(Cc2noc(C4CCC4)n2)C(=O)CO3)c1C | > 100 | 79.3 | 1.5 | 119
CCCN1C(=O)COc2ccc(NC(=O)c3cccc([N+](=O)[O-])c3)cc21 | > 100 | 104 |  | 
CCCN1C(=O)COc2ccc(NC(=O)Cc3ccccc3)cc21 | > 100 | 127 |  | 
O=C1COc2ccc(Nc3cccc(Cl)c3Cl)cc2N1Cc1noc(C2CCC2)n1 | 25 (≈ 11.1 µg/mL) | 86.2 | 1.25 | 108
CCCCN1C(=O)COc2ccc(S(=O)(=O)Nc3cccc(C)c3C)cc21 | > 100 | 110 |  | 

SMILES | solubility kinetic [1] [µM] | residual binding, % of control (HEK293T [2]) [%] | Selectivity ratio [3] | residual binding, % of control (HEK293T [4]) [%]
O=C1COc2ccc(-c3cccc(F)c3F)cc2N1Cc1noc(C2CCC2)n1 | > 100 | 85.1 | 1.11 | 94.8
Cc1cccc(NS(=O)(=O)c2ccc3c(c2)OCC(=O)N3Cc2ccccn2)c1C | > 100 | 112 |  | 
CCCN1C(=O)COc2ccc(NC(=O)c3cccc(C)c3C)cc21 | > 100 | 92 |  | 
O=C1COc2ccc(-c3ccccc3O)cc2N1Cc1noc(C2CCC2)n1 | > 100 | 94.9 | 1.15 | 109
O=C1COc2ccc(-c3ccccc3)cc2N1Cc1noc(C2CCC2)n1 | > 100 | 98.7 | 1.06 | 105
CCCN1C(=O)COc2ccc(S(=O)(=O)N3CCCCC3)cc21 | > 100 | 109 |  | 
CCCN1C(=O)COc2ccc(NS(=O)(=O)c3cccc(OC)c3)cc21 | > 100 | 99.8 |  | 
Cc1cccc(NS(=O)(=O)c2ccc3c(c2)OCC(=O)N3CCc2ccccc2)c1C | > 100 | 103 |  | 
CCCN1C(=O)COc2ccc(S(=O)(=O)Nc3ccccc3F)cc21 | > 100 | 147 |  | 
CCCN1C(=O)COc2ccc(NS(=O)(=O)c3ccc(Cl)cc3Cl)cc21 | > 100 | 101 |  | 
CCCN1C(=O)COc2ccc(S(=O)(=O)Nc3cc(OC)ccc3OC)cc21 | > 100 | 107 |  | 
O=C1COc2ccc(Nc3ccccc3F)cc2N1Cc1noc(C2CCC2)n1 | > 100 | 82 | 1.23 | 101
CCCN1C(=O)COc2ccc(S(=O)(=O)Nc3cccc(Cl)c3)cc21 | > 100 | 145 |  | 
CCCN1C(=O)COc2ccc(NS(=O)(=O)c3cccc(C)c3C)cc21 | > 100 | 83.2 |  | 
Cc1cccc(Nc2ccc3c(c2)N(Cc2noc(C4CCC4)n2)C(=O)CO3)c1Cl | 100 (≈ 42.5 µg/mL) | 89.8 | 1.13 | 102
CCCN1C(=O)COc2ccc(S(=O)(=O)Nc3cccc(Cl)c3C)cc21 | > 100 | 131 |  | 
CC(C)c1cccc(Nc2ccc3c(c2)N(Cc2noc(C4CCC4)n2)C(=O)CO3)c1 | > 100 | 88.7 | 1.18 | 105
CCCN1C(=O)COc2ccc(Nc3cccc(C)c3C)cc21 | > 100 | 104 | 1.04 | 108
CCCN1C(=O)COc2ccc(NS(=O)(=O)c3ccccc3)cc21 | > 100 | 89.2 |  | 
CC(C)c1ccccc1Nc1ccc2c(c1)N(Cc1noc(C3CCC3)n1)C(=O)CO2 | > 100 | 82.4 | 1.27 | 105
O=C1COc2ccc(Nc3ccc(Cl)cc3Cl)cc2N1Cc1noc(C2CCC2)n1 | 50 (≈ 22.3 µg/mL) | 79.1 | 1.29 | 102

SMILES | solubility kinetic [1] [µM] | residual binding, % of control (HEK293T [2]) [%] | Selectivity ratio [3] | residual binding, % of control (HEK293T [4]) [%]
CCCN1C(=O)COc2ccc(S(=O)(=O)Nc3cccc(N4CCOCC4)c3)cc21 | > 100 | 108 |  | 
CCCN1C(=O)COc2ccc(S(=O)(=O)NCc3ccccc3)cc21 | > 100 | 116 |  | 
O=C1COc2ccc(-c3ccccc3F)cc2N1Cc1noc(C2CCC2)n1 | > 100 | 79 | 1.24 | 98
CCCN1C(=O)COc2ccc(NS(=O)(=O)c3ccccc3Br)cc21 | > 100 | 88.1 |  | 
CCCN1C(=O)COc2ccc(NS(=O)(=O)c3cccc(Br)c3)cc21 | > 100 | 101 |  | 
CCCN1C(=O)COc2ccc(NC(=O)c3ccc(Cl)cc3Cl)cc21 | 50 (≈ 19 µg/mL) | 109 |  | 
O=C1COc2ccc(-c3cccc(F)c3)cc2N1Cc1noc(C2CCC2)n1 | 50 (≈ 19 µg/mL) | 90.3 | 1.11 | 101
CCCN1C(=O)COc2ccc(Nc3cccc(Br)c3)cc21 | 50 (≈ 18.1 µg/mL) | 101 | 1.14 | 116
CCCN1C(=O)COc2ccc(S(=O)(=O)Nc3ccccc3)cc21 | > 100 | 134 |  | 
CCCN1C(=O)COc2ccc(NS(=O)(=O)c3c(C(C)C)cc(C(C)C)cc3C(C)C)cc21 | > 100 | 59.9 |  | 
CCCN1C(=O)COc2ccc(Nc3ccccc3)cc21 | > 100 | 75.8 | 1.54 | 116
CCCN1C(=O)COc2ccc(NC(=O)c3ccccc3Br)cc21 | > 100 | 119 |  | 
Cc1cccc(NS(=O)(=O)c2ccc3c(c2)N(C)C(=O)CO3)c1C | > 100 | 106 |  | 
CCCN1C(=O)COc2ccc(NC(=O)c3cccc(Br)c3)cc21 | > 100 | 112 |  | 
Cc1ccccc1-c1ccc2c(c1)N(Cc1noc(C3CCC3)n1)C(=O)CO2 | > 100 | 109 | 1.01 | 110
O=C1COc2ccc(Nc3ccccc3Cl)cc2N1Cc1noc(C2CCC2)n1 | > 100 | 93.6 | 1.11 | 104
CCCN1C(=O)COc2ccc(S(=O)(=O)N3CCOCC3)cc21 | > 100 | 110 |  | 
CCCN1C(=O)COc2ccc(NS(=O)(=O)c3ccc(F)cc3C)cc21 | > 100 | 99.8 |  | 
CCCN1C(=O)COc2ccc(NC(=O)c3ccccc3)cc21 | > 100 | 106 |  | 
